From patent US10426773B2, “Systems pharmacology for treating ocular disorders” (Case Western Reserve Univeristy, priority 2011, dated 2019)
Entries after “also recorded” stand apart in the source; their conditions may differ. Structures can show the parent of a compound that is named as a salt.

Columns and labels:
Abca4−/−Rdh8−/− mice [1] = assay: Bright light-induced retinal degeneration in Abca4−/−Rdh8−/− mice, retinal histology and immunohistochemistry; assay type: in vivo, mouse; details: pretreatment before light 10,000 lux 30 min; 7-10 days after light exposure
Procedure: Retinal histology and immunohistochemistry (IHC) was performed as previously described. Briefly, eye cups free of cornea, lens and vitreous body were fixed in 2% glutaraldehyde/4% paraformaldehyde and processed for Epon embedding. Sections 1 am thick were cut and stained with toluidine blue for histological examination under a light microscope. IHC analysis was performed on 12 am thick cryosections prepared from 4% paraformaldehyde-fixed eye cups. Collected cryosections were subjected to examination for rhodopsin, PNA and DAPI expression.
Retinal immunohistochemistry (IHC) was carried out as previously described. Briefly, eyes were enucleated and eye cups were made to eliminate cornea, lens and vitreous body and fixed in 4% paraformaldehyde and processed for cryosectioning. 12 am thick cryosections were collected cryosections and subjected to examination for rhodopsin, peanut agglutinin lectin (PNA) and DAPI expression.
Retinal immunohistochemistry (IHC) was performed as previously described. Briefly, eyes were enucleated and, after removal of the cornea, lens and vitreous body, eye cups were fixed in 4% paraformaldehyde and processed for cryosectioning. Twelve μm thick cryosections were cut, collected and examined for rhodopsin expression, peanut agglutinin lectin (PNA) for cone sheath and nuclear DAPI staining. […]

Abca4−/−Rdh8−/− mice [2] = assay: Bright light-induced retinal degeneration in Abca4−/−Rdh8−/− mice, ERG retinal function; details: pretreatment before light 10,000 lux 30 min; ERG 7 days to 2 weeks after
Abca4−/−Rdh8−/− mice [3] = assay: Bright light-induced retinal degeneration in Abca4−/−Rdh8−/− mice, OCT imaging of retinal structure; assay type: in vivo, mouse; details: for retinal / photoreceptor morphology by OCT imaging: pretreatment before light 10,000 lux 30 min, OCT 7 days after light exposure; for Percent of mice with: subeffective doses BRM 0.1, MTP 1, TAM 0.05, DOX 1 mg/kg bw, OCT 7 days; for Effect (effectiveness at preventing light-induced photoreceptor degeneration as measured by OCT imaging): ip, dose of each compound in column Dose of Table 1
[4] = system: retinal transcriptome of Abca4−/−Rdh8−/− mice; assay: RNA-seq retinal transcriptome of pretreated, light-exposed Abca4−/−Rdh8−/− mice (differential expression, Pearson, GSEA); assay type: in vivo, mouse
Abca4−/−Rdh8−/− mice [5] = assay: Bright light-induced retinal degeneration in Abca4−/−Rdh8−/− mice, SLO autofluorescence imaging; assay type: in vivo, mouse; details: pretreatment before light 10,000 lux 30 min; SLO 8-9 days after light exposure
Procedure: SLO (Heidelberg Engineering, Heidelberg, Germany) was carried out for whole fundus imaging of mouse retinas. Mice were anesthetized by intraperitoneal injection of anesthetic cocktail indicated above, which was followed by pupil dilation using 1% tropicamide prior to SLO imaging under autofluorescence mode.
SLO (Heidelberg Engineering) was carried out for in vivo whole fundus imaging of mouse retinas. […] Numbers of autofluorescent spots were counted and subjected to statistical analyses as described below.
SLO (Heidelberg Engineering) was carried out for whole fundus imaging of mouse retinas in vivo. Mice were anesthetized, and their pupils were dilated as described above. SLO images were then acquired in the autofluorescence mode.

[6] = GSEA, vehicle-treated light-exposed retinas against drug-treated

Molecule | retinal histology / immunohistochemistry (rhodopsin, PNA, DAPI; ONL) (Abca4−/−Rdh8−/− mice [1]) | retinal function by ERG (a-wave and b-wave amplitudes) (Abca4−/−Rdh8−/− mice [2]) | retinal / photoreceptor morphology by OCT imaging (Abca4−/−Rdh8−/− mice [3]) | retinal autofluorescence spots by SLO imaging (Abca4−/−Rdh8−/− mice [5]) | other results
C[N+]1(C)CCC(OC(=O)C(c2ccccc2)c2ccccc2)CC1.[I-] [4-DAMP, 1,1-dimethyl-4-diphenylacetoxypiperidinium iodide] | preserve retinal morphology | protective effect | – | – | –
CCCN(CCC)C1CCc2cccc(O)c2C1 (centres unmarked) [8-OH-DPAT, 8-hydroxy-N,N-dipropyl-2-aminotetralin] | – | – | protective effect; also recorded: dose-dependent | – | –
CC(C)C[C@H]1C(=O)N2CCC[C@H]2[C@]2(O)O[C@](NC(=O)[C@@H]3C=C4c5cccc6[nH]c(Br)c(c56)C[C@H]4N(C)C3)(C(C)C)C(=O)N12 [BRM, 2-Bromo-α-ergocryptine methanesulfonate salt] | – | – | – | – | Percent of mice with (Abca4−/−Rdh8−/− mice [3]; Table 14 (complete protection, ONL ≥50 μm)): 16.7% of mice; Percent of mice with (Abca4−/−Rdh8−/− mice [3]; Table 14 (no protection, ONL ≤20 μm)): 66.7% of mice; light-exposed mice with complete retinal protection (Abca4−/−Rdh8−/− mice [3]; lower doses BRM 0.1, MTP 1, TAM 0.05 mg/kg bw, alone or all three combined): 17%; NES, CHEMOKINE SIGNALING gene set [4, 6]: 1.67; NES, CYTOKINE- RECEPTOR INTERACTIO gene set [4, 6]: 2.31; NES, P53 gene set [4, 6]: 2.06; NES, TOLL-LIKE SIGNALING gene set [4, 6]: 2.20; NES, APOPTOSIS gene set ([4]; GSEA, vehicle-treated light-exposed retinas against drug-treated, P in brackets not reported here): 1.75; number of light-up-regulated gene sets significantly down-regulated (GSEA) ([4]; of 44 gene sets up-regulated by light, mono doses BRM 1, MTP 10, TAM 2.5, DOX 10 mg/kg bw): 29 gene sets
Cl.N=C(N)NC(=O)Cc1c(Cl)cccc1Cl [Guanfacine] | substantially preserved photoreceptor morphology | – | significantly prevented | markedly less autofluorescence spots | –
c1ccc2c(c1)OCC(C1=NCCN1)O2 (centres unmarked) [IDA, idazoxan] | – | – | – | – | effect on the protective action of GUB (Abca4−/−Rdh8−/− mice [3]; IDA 2.5 and 5 mg/kg BW first, then GUB 2 mg/kg BW, FIG. 25D): totally abolished the protective action
COc1cc2nc(N3CCN(C(=O)c4ccco4)CC3)nc(N)c2cc1OC.Cl [Prazosin] | substantially preserved photoreceptor morphology | – | substantial protection on photoreceptor morphology | significantly protected retinas from developing light-induced damage | –
CC1CCN(CC[C@H]2CCCN2S(=O)(=O)c2cccc(O)c2)CC1.Cl [SB 269970, 3-({(2R)-2-[2-(4-Methyl-1-piperidinyl)ethyl]-1-pyrrolidinyl}sulfonyl)phenol hydrochloride (1:1)] | – | – | profound preservation of photoreceptor morphology | significantly reduced formation of autofluorescence spots | –
CN1CCC(c2cn(C)c3ccc(OS(=O)(=O)c4c(F)cccc4F)cc23)CC1 [SGS 518 oxalate] | substantially preserved photoreceptor morphology | – | profound preservation of photoreceptor morphology | significantly reduced formation of autofluorescence spots | –
COc1ccc2c(c1)CC[C@@H]1[C@@H]2CC[C@]2(C)[C@@H](NCCCCCCN3C(=O)C=CC3=O)CC[C@@H]12 [U-73122, 1-(6-((17β-3-methoxyestra-1,3,5(10)-trien-17-yl)amino)hexyl)-1H-pyrrole-2,5-dione] | markedly less light-induced photoreceptor damage | protective effect | – | – | –
COC(=O)[C@@H]1[C@H]2C[C@H]3c4[nH]c5ccccc5c4CCN3C[C@@H]2CC[C@@H]1O.Cl [Yohimbine] | – | – | – | – | Effect (effectiveness at preventing light-induced photoreceptor degeneration as measured by OCT imaging) (Abca4−/−Rdh8−/− mice [3]): toxic
O=C(c1ccc(F)cc1)C1CCN(CCn2c(=O)[nH]c3ccccc3c2=O)CC1 [ketanserin] | substantial protective effect | protective effect | – | – | –
Cc1nc2sccn2c(=O)c1CCN1CCC(=C(c2ccc(F)cc2)c2ccc(F)cc2)CC1 [ritanserin, Ritanserin] | – | protective effect | substantially protected photoreceptors from light-induced degeneration | – | –
Eltoprazine | – | – | – | – | Effect (effectiveness at preventing light-induced photoreceptor degeneration as measured by OCT imaging) (Abca4−/−Rdh8−/− mice [3]): 20%
